From US20160002217A1, “FUNGICIDAL 3--OXADIAZOLONE DERIVATIVES” (BAYER CROPSCIENCE AG, priority 2013, published 2016)
Marks after values point to notes of the source that are not given here.

Experiments:
[1] = pH 2.7
[2] = system: Phytophthora infestans; type: in vivo; details: tomato plants, preventive spray, 500 ppm of active ingredient, evaluated 5 days after inoculation

Structure (SMILES): CC(Oc1ccccc1)C(=O)Nc1nc(CON=C(c2ccsc2)c2noc(=O)n2C)cs1 (racemic) [Example 43]
- LogP [1]: 3.37^[a]
- % efficacy [2]: 98%

Structure (SMILES): Cn1c(C(=NOCc2cccc(NC(=O)OC(C)(C)C)n2)c2ncccn2)noc1=O (single isomer, unassigned) [Example 27]
- LogP [1]: 2.66^[a][b]

Structure (SMILES): Cn1c(C(=NOCc2cccc(NC(=O)OC(C)(C)C)n2)c2ncccn2)noc1=O (single isomer, unassigned) [Example 28]
- LogP [1]: 2.56^[a][c]

Structure (SMILES): CCn1oc(=O)nc1C(=NOCc1cccc(N)n1)c1ccccn1 [Example 1]
- LogP [1]: 0.69^[a]

Structure (SMILES): CCCCCOC(=O)Nc1cccc(CON=C(c2ccccn2)c2nc(=O)on2CC)n1 [Example 2]
- LogP [1]: 3.42^[a]

Structure (SMILES): CCCCOC(=O)Nc1cccc(CON=C(c2ccccn2)c2noc(=O)n2C)n1 [Example 3]
- LogP [1]: 3.25^[a]
- % efficacy [2]: 100%

Structure (SMILES): CCCCCC(=O)Nc1cccc(CON=C(c2ccccn2)c2noc(=O)n2C)n1 [Example 4]
- LogP [1]: 3.13^[a]
- % efficacy [2]: 88%

Structure (SMILES): CCCCOC(=O)Nc1cccc(CON=C(c2ccccn2)c2nc(=O)on2CC)n1 [Example 5]
- LogP [1]: 2.96^[a]

Structure (SMILES): CCCCC(=O)Nc1cccc(CON=C(c2ccccn2)c2nc(=O)on2CC)n1 [Example 6]
- LogP [1]: 2.49^[a]

Structure (SMILES): C#CCCOC(=O)Nc1cccc(CON=C(c2ccccn2)c2noc(=O)n2C)n1 [Example 7]
- LogP [1]: 2.56^[a]
- % efficacy [2]: 85%

Structure (SMILES): CCn1oc(=O)nc1C(=NOCc1cccc(NC(=O)OC(C)(C)C)n1)c1ccccn1 [Example 8]
- LogP [1]: 2.84^[a]

Structure (SMILES): CCCCC(=O)Nc1cccc(CON=C(c2ccccn2)c2nc(=O)on2C)n1 [Example 10]
- LogP [1]: 2.25^[a]

Structure (SMILES): CCCCCC(=O)Nc1cccc(CON=C(c2ccccn2)c2nc(=O)on2CC)n1 [Example 11]
- LogP [1]: 2.84^[a]

Structure (SMILES): CCCCCOC(=O)Nc1cccc(CON=C(c2ccccn2)c2noc(=O)n2C)n1 [Example 12]
- LogP [1]: 3.67^[a]
- % efficacy [2]: 85%

Structure (SMILES): Cn1c(C(=NOCc2cccc(N)n2)c2ccccn2)noc1=O [Example 14]
- LogP [1]: 0.85^[a]

Structure (SMILES): CCCCCOC(=O)Nc1cccc(CON=C(c2ccccn2)c2nc(=O)on2C)n1 [Example 15]
- LogP [1]: 3.09^[a]
- % efficacy [2]: 88%

Structure (SMILES): CCCCCC(=O)Nc1cccc(CON=C(c2ccccn2)c2nc(=O)on2C)n1 [Example 18]
- LogP [1]: 2.61^[a]

Structure (SMILES): CC(C)(C)OC(=O)Nc1nc(CON=C(c2ccsc2)c2noc(=O)[nH]2)cs1 [Example 20]
- LogP [1]: 3.20^[a]

Structure (SMILES): CCCCOC(=O)Nc1cccc(CON=C(c2ccccn2)c2nc(=O)on2C)n1 [Example 21]
- LogP [1]: 2.70^[a]

Structure (SMILES): CC(C)(C)OC(=O)Nc1nc(CON=C(c2noc(=O)[nH]2)c2cccs2)cs1 [Example 24]
- LogP [1]: 3.26^[a]

Structure (SMILES): Cn1oc(=O)nc1C(=NOCc1cccc(NC(=O)OC(C)(C)C)n1)c1ncccn1 [Example 25]
- LogP [1]: 2.14^[a]

Structure (SMILES): CC(C)(C)OC(=O)Nc1cccc(CON=C(c2ncccn2)c2noc(=O)[nH]2)n1 [Example 26]
- LogP [1]: 2.27^[a]

Structure (SMILES): Cn1oc(=O)nc1C(=NOCc1cccc(N)n1)c1ncccn1 [Example 29]
- LogP [1]: 0.92^[a]

Structure (SMILES): Cn1c(C(=NOCc2cccc(N)n2)c2ncccn2)noc1=O [Example 30]
- LogP [1]: 0.39^[a]

Structure (SMILES): Cn1oc(=O)nc1C(=NOCc1cccc(NC(=O)OC(C)(C)C)n1)c1cccnc1 [Example 31]
- LogP [1]: 2.28 + 2.37^[a]

Structure (SMILES): Cn1oc(=O)nc1C(=NOCc1cccc(N)n1)c1cccnc1 [Example 34]
- LogP [1]: 1.19^[a]

Structure (SMILES): Cn1c(C(=NOCc2cccc(N)n2)c2cccnc2)noc1=O [Example 35]
- LogP [1]: 0.52 ± 0.46^[a]

Structure (SMILES): CC(C)(C)OC(=O)Nc1cccc(CON=C(c2ccncc2)c2noc(=O)[nH]2)n1 [Example 36]
- LogP [1]: 2.37^[a]

Structure (SMILES): Cn1oc(=O)nc1C(=NOCc1cccc(NC(=O)OC(C)(C)C)n1)c1ccncc1 [Example 37]
- LogP [1]: 2.21^[a]
- % efficacy [2]: 80%

Structure (SMILES): Cn1c(C(=NOCc2cccc(NC(=O)OC(C)(C)C)n2)c2ccncc2)noc1=O [Example 38]
- LogP [1]: 2.75^[a]
- % efficacy [2]: 100%

Structure (SMILES): Cn1oc(=O)nc1C(=NOCc1cccc(N)n1)c1ccncc1 [Example 39]
- LogP [1]: 1.20^[c]

Structure (SMILES): Cn1c(C(=NOCc2cccc(N)n2)c2ccncc2)noc1=O [Example 40]
- LogP [1]: 0.41^[a]

Structure (SMILES): CN(C(=O)OC(C)(C)C)c1nc(CON=C(c2cccs2)c2noc(=O)n2C)cs1 [Example 41]
- LogP [1]: 4.24^[a]

Structure (SMILES): Cn1c(C(=NOCc2csc(NC(=O)OC(C)(C)C)n2)c2cccs2)noc1=O [Example 42]
- LogP [1]: 3.35^[a]
- % efficacy [2]: 93%

Structure (SMILES): CCCCOC(=O)Nc1cccc(CON=C(c2ncccn2)c2nc(=O)on2C)n1 [Example 46]
- LogP [1]: 2.23^[a]

Structure (SMILES): CCCCCC(=O)Nc1cccc(CON=C(c2cccnc2)c2noc(=O)n2C)n1 [Example 47]
- LogP [1]: 2.86^[a]

Structure (SMILES): CCCCCC(=O)Nc1cccc(CON=C(c2ncccn2)c2nc(=O)on2C)n1 [Example 48]
- LogP [1]: 2.18^[a]

Structure (SMILES): CCCCCOC(=O)Nc1cccc(CON=C(c2cccnc2)c2noc(=O)n2C)n1 [Example 49]
- LogP [1]: 3.37^[a]
- % efficacy [2]: 99%

Structure (SMILES): CCCCOC(=O)Nc1cccc(CON=C(c2cccnc2)c2noc(=O)n2C)n1 [Example 50]
- LogP [1]: 2.98^[a]
- % efficacy [2]: 100%

Structure (SMILES): C#CCCOC(=O)Nc1cccc(CON=C(c2cccnc2)c2noc(=O)n2C)n1 [Example 51]
- LogP [1]: 2.32^[a]
- % efficacy [2]: 90%

Structure (SMILES): CCCCCOC(=O)Nc1cccc(CON=C(c2ncccn2)c2noc(=O)n2C)n1 [Example 52]
- LogP [1]: 3.06^[a]
- % efficacy [2]: 88%

Structure (SMILES): CCCCOC(=O)Nc1cccc(CON=C(c2ncccn2)c2noc(=O)n2C)n1 [Example 53]
- LogP [1]: 2.68^[a]
- % efficacy [2]: 85%

Structure (SMILES): C#CCCOC(=O)Nc1cccc(CON=C(c2ncccn2)c2noc(=O)n2C)n1 [Example 54]
- LogP [1]: 2.08^[a]

Structure (SMILES): CCCCCOC(=O)Nc1cccc(CON=C(c2cccnc2)c2nc(=O)on2C)n1 [Example 55]
- LogP [1]: 2.84^[a]
- % efficacy [2]: 92%

Structure (SMILES): CCCCC(=O)Nc1cccc(CON=C(c2ncccn2)c2nc(=O)on2C)n1 [Example 58]
- LogP [1]: 1.84^[a]

Structure (SMILES): CCCCC(=O)Nc1cccc(CON=C(c2ncccn2)c2noc(=O)n2C)n1 [Example 61]
- LogP [1]: 2.23^[a]

Structure (SMILES): CCCCC(=O)Nc1cccc(CON=C(c2cccnc2)c2nc(=O)on2C)n1 [Example 62]
- LogP [1]: 2.04^[a]

Structure (SMILES): Cn1c(C(=NOCc2csc(NC(=O)c3ccc(F)cc3)n2)c2ccsc2)noc1=O [Example 64]
- LogP [1]: 3.26^[a]

Structure (SMILES): Cn1c(C(=NOCc2csc(N(COCC[Si](C)(C)C)C(=O)OC(C)(C)C)n2)c2ccsc2)noc1=O [Example 65]
- LogP [1]: 5.86^[a]

Structure (SMILES): CC(C)(C)OC(=O)N(COCC[Si](C)(C)C)c1nc(CON=C(c2ccsc2)c2noc(=O)[nH]2)cs1 [Example 66]
- LogP [1]: 5.45^[a]

Structure (SMILES): CCCCCOC(=O)Nc1nc(CON=C(c2ccsc2)c2noc(=O)n2C)cs1 [Example 68]
- LogP [1]: 3.81^[a]

Structure (SMILES): Cn1c(C(=NOCc2csc(N(COCC[Si](C)(C)C)C(=O)OC(C)(C)C)n2)c2cccs2)noc1=O [Example 70]
- LogP [1]: 5.84^[a]

Structure (SMILES): CC(C)(C)OC(=O)N(COCC[Si](C)(C)C)c1nc(CON=C(c2noc(=O)[nH]2)c2cccs2)cs1 [Example 72]
- LogP [1]: 5.45^[a]

Structure (SMILES): CCCCC(=O)Nc1cccc(CON=C(c2ccncc2)c2nc(=O)on2C)n1 [Example 75]
- LogP [1]: 1.88^[a]

Structure (SMILES): C#CCCOC(=O)Nc1cccc(CON=C(c2ccncc2)c2nc(=O)on2C)n1 [Example 76]
- LogP [1]: 1.74^[a]

Structure (SMILES): CCCCCC(=O)Nc1cccc(CON=C(c2ccncc2)c2nc(=O)on2C)n1 [Example 77]
- LogP [1]: 2.23^[a]

Structure (SMILES): CCCCCOC(=O)Nc1cccc(CON=C(c2ccncc2)c2nc(=O)on2C)n1 [Example 78]
- LogP [1]: 2.68^[a]

Structure (SMILES): CCCCOC(=O)Nc1cccc(CON=C(c2ccncc2)c2nc(=O)on2C)n1 [Example 79]
- LogP [1]: 2.32^[a]

Structure (SMILES): Cn1c(C(=NOCc2csc(N)n2)c2cccs2)noc1=O [Example 81]
- LogP [1]: 1.38^[a]

Structure (SMILES): Cn1c(C(=NOCc2csc(NC(=O)c3ccc(F)cc3)n2)c2cccs2)noc1=O [Example 85]
- LogP [1]: 3.20^[a]

Structure (SMILES): Cn1c(C(=NOCc2csc(NC(=O)COc3ccccc3)n2)c2cccs2)noc1=O [Example 86]
- LogP [1]: 3.18^[a]

Structure (SMILES): CC(C)(C)OC(=O)Nc1nc(CON=C(C#N)c2ccsc2)cs1 [Example IV-01]
- LogP [1]: 3.62^[a]

Structure (SMILES): CC(C)(C)OC(=O)Nc1cccc(CON=C(C#N)c2ncccn2)n1 [Example IV-03]
- LogP [1]: 2.82^[a]

Structure (SMILES): CC(C)(C)OC(=O)Nc1cccc(CON=C(C#N)c2ccncc2)n1 [Example IV-04]
- LogP [1]: 3.05^[a]

Structure (SMILES): CC(C)(C)OC(=O)Nc1nc(CON=C(C#N)c2cccs2)cs1 [Example IV-05]
- LogP [1]: 3.65^[a]

Structure (SMILES): CC(C)(C)OC(=O)N(COCC[Si](C)(C)C)c1nc(CON=C(C#N)c2cccs2)cs1 [Example IV-06]
- LogP [1]: 6.35^[a]

Structure (SMILES): CCOC(=O)c1nc(CON=C(C#N)c2ccsc2)cs1 [Example IV-08]
- LogP [1]: 3.15^[a]

Structure (SMILES): Cc1nc(CON=C(C#N)c2ccsc2)cs1 [Example IV-09]
- LogP [1]: 1.45^[a]

Structure (SMILES): N#CC(=NOCc1csc(NC(=O)c2ccc(F)cc2)n1)c1ccsc1 [Example IV-10]
- LogP [1]: 3.51^[a]

Structure (SMILES): CC(C)(C)OC(=O)N(C(=O)OC(C)(C)C)c1nc(CON=C(C#N)c2ccsc2)cs1 [Example IV-11]
- LogP [1]: 4.90^[a]

Structure (SMILES): CC(C)(C)OC(=O)Nc1cccc(CON=C(C(N)=NO)c2ccccn2)n1 [Example V-01]
- LogP [1]: 1.76^[a]

Structure (SMILES): CC(C)(C)OC(=O)Nc1nc(CON=C(C(N)=NO)c2ccsc2)cs1 [Example V-02]
- LogP [1]: 2.17^[a]

Structure (SMILES): CC(C)(C)OC(=O)N(COCC[Si](C)(C)C)c1nc(CON=C(C(N)=NO)c2cccs2)cs1 [Example V-04]
- LogP [1]: 4.60^[a]

Structure (SMILES): CCOC(=O)c1nc(CON=C(C(N)=NO)c2ccsc2)cs1 [Example V-05]
- LogP [1]: 1.70^[a]

Structure (SMILES): CC(C)(C)OC(=O)Nc1cccc(CON=C(C(N)=NO)c2ccncc2)n1 [Example V-06]
- LogP [1]: 1.53^[a]

Structure (SMILES): CC(C)(C)OC(=O)Nc1cccc(CON=C(C(N)=NO)c2ncccn2)n1 [Example V-07]
- LogP [1]: 1.58 + 1.87^[a]

Structure (SMILES): CC(C)(C)OC(=O)Nc1nc(CON=C(C(N)=NO)c2cccs2)cs1 [Example V-08]
- LogP [1]: 2.26^[a]
